The results in this text go back to ChEMBL document CHEMBL3045076, “Influence on Insecticidal Activity of the 3-(3,4-Methylenedioxyphenyl) Group in the 1,4-Benzodioxanyl Moiety of Haedoxan” (1992).

The test system of experiment [1] is Musca domestica. Description: Insecticidal activity against Musca domestica (house fly) assessed as mortality measured per fly. The format is functional.
Experiment [2] relates to Musca domestica. Description: Insecticidal activity against Musca domestica (house fly) assessed as increase in mortality. It counts as functional, organism-based.

The source made the active and inactive calls. The calls are words filed in the database; no cut-off is given here.

For the compound `CCCC[C@H]1Oc2cc(OC)c([C@H]3OC[C@]4(O)[C@@H](Oc5c(OC)cccc5OC)OC[C@H]34)cc2O[C@@H]1COC` (mixture of isomers), the LD50 in the experiment with Musca domestica [1] worked out at 1 µg.
Still for that read-out and setting: under `COC[C@H]1Oc2cc([C@H]3OC[C@]4(O)[C@@H](Oc5c(OC)cccc5OC)OC[C@H]34)c(OC)cc2O[C@@H]1C` (mixture of isomers) stands 1 µg.
On to `COC[C@H]1Oc2cc([C@H]3OC[C@]4(O)[C@@H](Oc5c(OC)cccc5OC)OC[C@H]34)c(OC)cc2O[C@H]1C` (mixture of isomers), for which, in the experiment with Musca domestica [2], the result was inactive.
As to `COC[C@H]1Oc2cc([C@H]3OC[C@]4(O)[C@@H](Oc5c(OC)cc6c(c5OC)OCO6)OC[C@H]34)c(OC)cc2O[C@@H]1c1ccc2c(c1)OCO2` [(+)-HAEDOXAN A], the LD50 in the experiment on Musca domestica [1] is 0.00025 µg.
